According to patent US10294273B2, “Macrocyclic peptidomimetics for alpha-helix mimicry” (UNIVERSITY OF ROCHESTER, priority 2014, dated 2019):

Tests used:
[1] = Circular dichroism analysis of α-helicity; conditions: 5 mM potassium phosphate pH 7.0, 40% trifluoroethanol
Protocol: The alpha helical content of the macrocyclic peptidomimetic molecules and reference non-macrocyclic compounds disclosed herein can be determined by Circular Dichroism (CD) spectroscopy.
CD spectra were recorded with a JASCO J-710 CD spectropolarimeter using a 0.1 cm path length cuvette at room temperature. The purified peptides were dissolved in 5 mM potassium phosphate buffer (pH 7.0) containing 40% trifluoroethanol to a final concentration of 20-50 μM. […] The bandwidth was set to 2.0 nm and the sensitivity of the spectrometer set to 100 mdeg.

chymotrypsin = chymotrypsin (Bos taurus, UniProt P00766); assay: Proteolytic stability in the presence of chymotrypsin (HPLC); conditions: chymotrypsin 1.0 μg/mL, peptide 10 μM
Protocol: This property can be assessed by incubating the macrocyclic peptidomimetic molecules and the corresponding reference non-macrocyclic polypeptides in the presence of purified proteases or, alternatively, human blood serum. The in vitro proteolytic degradation of the compounds can be then monitored over time by HPLC equipped with a UV detector. From the resulting time-dependent curves, the half-life of the compounds can be measured. As an example, the in vitro proteolytic stability of macrocycles was measured by incubating the compound (10 μM) in 50 mM potassium phosphate buffer (pH 7.5) in the presence of chymotrypsin (1.0 μg/mL) at room temperature. At different time points (e.g. 0, 30, 60, 120, 180, 240 min), an aliquot of the reaction mixture (50 μL) was removed, quenched addition of TFA (5 μL) followed by HPLC analysis. Peptide cleavage was monitored based on the decrease of the peak area corresponding to the integer peptide.
Each peptide (10 μM) was dissolved in 50 mM potassium phosphate buffer (pH 7.5) containing 150 mM NaCl and 10% DMSO. Chymotrypsin (Sigma-Aldrich) was added to a final concentration of 1.0 μg/mL and incubated at room temperature. At each time point, a 50 μL aliquot of the mixture was removed, quenched by TFA addition (5 μL) followed by HPLC analysis. Peptide cleavage was monitored based on the decrease of the peak area corresponding to the integer peptide. […]

HEK-293 cells = assay: Cell penetration by confocal fluorescence microscopy; type: cell-based, human; conditions: fluorescein-conjugated compound, 20 μM, 2 h
Protocol: In some embodiments, the macrocyclic peptidomimetics described herein are more cell permeable than a corresponding non-macrocyclic counterpart. […] To measure the cell permeability of these compounds, intact cells are incubated with fluorescently labeled (e.g. fluorescein-conjugated) macrocyclic peptidomimetic molecule or corresponding non-macrocyclic counterpart (10 μM) for 4 hrs in serum free media at 37° C. Cells are then washed twice with media, incubated with trypsin (e.g. 0.25% trypsin, 10 min, 37° C.), then washed again and resuspended in PBS. Cellular fluorescence is analyzed, for example, by using a FACSCalibur flow cytometer. Alternatively, the ability of the fluorescently labelled compound to penetrate cells can be assessed by confocal fluorescence microscopy.
Similar results were obtained for other p53 macrocyclic peptidomimetic molecules described in FIG. 10.
The cell permeability properties of the macrocyclic peptidomimetics and reference linear peptides were assessed using HEK-293 cell line. These cells were cultured in the DMEM medium supplemented with 10% fetal bovine serum and penicillin/streptomycin. For the cell permeability evaluations, cells were seated overnight (1×10^4 cells/well) in 24-well tissue culture treated plates with glass bottom. […]

SJSA-1 cells = assay: Cell viability (MTT) assay in SJSA-1 osteosarcoma cells; type: cell-based, human; conditions: overnight treatment
Protocol: The cytotoxic activity of the macrocyclic peptidomimetic molecules is determined, for example, in cell-based assays using tumorigenic and non-tumorigenic cell lines and primary cells derived from human or mouse cell populations. […]. Such assays can be used to assess the efficacy of the macrocyclic peptidomimetic molecules to reduce the viability of tumorigenic and non-tumorigenic cells. In addition, assays that measure Annexin V and caspase activation can be optionally used to assess whether the cytotoxicity of the macrocyclic peptidomimetic molecules is dependent upon activation of the apoptotic machinery, which is expected to result from reactivation of p53 activity.
Similar results were obtained for other p53 macrocyclic peptidomimetic molecules described in FIG. 10, resulting in LD50 in the low micromolar range.
Cultured SJSA-1 cells were maintained in the RPMI-1640 medium supplemented with 10% fetal bovine serum. For viability evaluation cells were seated in 96-well, tissue culture treated plates (2×10^4 cells/well) and incubated overnight. […] The cells were treated overnight and the viability was assessed by a standard MTT (3-(4,5-dimethylthiazol-2-yl)-2,5-diphenyltetrazolium bromide) assay. The viability is expressed as percentage of viability of the non-treated cells.

[2] = system: p53(15-29)-HDM2 interaction; assay: HDM2 IC50 (nM)
Description: (§1) Table printed on a drawing sheet, FIG. 10
Head of the field: HDM2 IC50 (nM)
(§2) The patent's description of the figure: FIG. 10. Amino acid sequence, structure, and inhibitory activity of selected p53 macrocyclic peptidomimetics and reference linear peptides. The inhibitory activities refer to IC50 values for disruption of p53(15-29)-HDM2 interaction or p53(15-29)-HDMX interaction as determined using a Surface Plasmon Resonance-based inhibition assay.
(§3) First copying reader's note: In cyclic peptides the linker name (SP4, SP6, SP8, SP9) is printed above the sequence inside a bracket running from the pAcF/mAcF residue to the C-terminus; it is given here before the sequence.
(§4) Where the first naming reader finds the target: description_of_the_figure: IC50 values for disruption of p53(15-29)-HDM2 interaction or p53(15-29)-HDMX interaction

[3] = system: p53(15-29)-HDMX interaction; assay: HDMX IC50 (nM)
Description: as §1
Head of the field: HDMX IC50 (nM)
as §2, §3, §4

HDMX = target: T1, HDMX (Homo sapiens, UniProt O15151); assay: SPR inhibition assay, disruption of p53(15-29)-HDMX interaction; type: binding; conditions: selectivity ratio between the two protein homologs
T1 construct: His tag (C); made in house; host or cells: E. coli BL21(DE3)
T1 sequence (O15151 1-109): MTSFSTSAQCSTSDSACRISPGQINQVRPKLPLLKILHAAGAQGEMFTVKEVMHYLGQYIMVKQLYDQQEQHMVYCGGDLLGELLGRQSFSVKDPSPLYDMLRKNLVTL
Description: The ability of the macrocyclic peptidomimetic molecules to bind a protein of interest and disrupt a target protein-protein interaction can be assessed, for example, via in vitro surface plasmon resonance (SPR)-based inhibition assays. For example, the ability of these compounds to inhibit the interaction of p53 with oncoprotein HDM2 and HDMX can be measured via an in-solution inhibition assay, in which a biotinylated p53-derived peptide (e.g., biotin-SGSG-p5315-29) is first immobilized on a streptavidin-coated biosensor chip. Soluble HDM2 (or HDMX) is then incubated with varying concentrations of the macrocycle and the mixture is then injected over the functionalized surface. With increasing concentrations of the inhibitor, binding of HDM2 (or HDMX) to the surface is inhibited, leading to a decrease in biosensor response. The response-concentration curves can be then analyzed to measure the inhibitory activity of the compounds in terms of half-maximal inhibitory concentration (IC50).
Briefly, biotin-conjugated […] peptide was first immobilized on a streptavidin-coated biosensor chip and increasing concentrations of the inhibitors were added to a fixed concentration of HDM2 or HDMX. From the corresponding dose-response curves (FIGS. 12A-12B), half-maximal inhibitory concentrations (IC50) were determined for the compounds as summarized in FIG. 10. […]

Compound | α-helical content [1] | survival of incubation with the protease, up to (chymotrypsin) | viability of SJSA-1 cells upon treatment (SJSA-1 cells) | IC50 [2] [µM] | IC50 [3] [µM] | other results
CC1=NOCc2cn(nn2)Cc2ccc(CSCC(N)=O)c(c2)NC(=O)[C@H](C)NC(=O)[C@H](CC(C)C)NC(=O)[C@H](CC(C)C)NC(=O)[C@H](CC(N)=O)NC(=O)[C@H](Cc2c[nH]c3ccccc23)NC(=O)[C@H](Cc2ccc(O)cc2)NC(=O)[C@H](CCC(=O)O)NC(=O)[C@H](C)NC(=O)[C@H](Cc2ccccc2)NC(=O)[C@H](CO)NC(=O)[C@@H](NC(=O)CN)Cc2ccc1cc2 [P7] | 40% | up to 3 hour |  |  |  | 
CC1=NOCCCNC(=O)c2ccc(CSCC(N)=O)c(c2)NC(=O)[C@H](C)NC(=O)[C@H](CC(C)C)NC(=O)[C@H](CC(C)C)NC(=O)[C@H](CC(N)=O)NC(=O)[C@H](Cc2c[nH]c3ccccc23)NC(=O)[C@H](Cc2ccc(O)cc2)NC(=O)[C@H](CCC(=O)O)NC(=O)[C@H](C)NC(=O)[C@H](Cc2ccccc2)NC(=O)[C@H](CO)NC(=O)[C@@H](NC(=O)CN)Cc2ccc1cc2 [P8] | 21% | ≤ 4 h | a reduction of cell viability |  |  | cellular uptake (confocal fluorescence microscopy) (HEK-293 cells): diffuse fluorescence at the intracellular level
CC1=NOCc2ccc(CS)c(c2)NC(=O)[C@H](C)NC(=O)[C@H](CC(C)C)NC(=O)[C@H](CC(C)C)NC(=O)[C@H](CC(N)=O)NC(=O)[C@H](Cc2c[nH]c3ccccc23)NC(=O)[C@H](Cc2ccc(O)cc2)NC(=O)[C@H](CCC(=O)O)NC(=O)[C@H](C)NC(=O)[C@H](Cc2ccccc2)NC(=O)[C@H](CO)NC(=O)[C@@H](NC(=O)CN)Cc2ccc1cc2 [P9] |  |  |  | > 50 | > 50 | 
COc1ccc(C2=N[C@@H](c3ccc(Cl)cc3)[C@@H](c3ccc(Cl)cc3)N2C(=O)N2CCNC(=O)C2)c(OC(C)C)c1 [nutlin-3] |  |  | responsiveness of the cells to p53-HDM2 inhibition was confirmed |  |  | 
P6: unconstrained reference linear peptide (SEQ ID NO. 44), acyclic counterpart of P7 and P8 (GYSFAEYWNLLA; Engineered Sequence) |  |  |  | 0.065 | 0.355 | 
P6: unconstrained reference linear peptide (SEQ ID NO. 44), acyclic counterpart of P7 and P8 (GYSFAEYWNLLA; Engineered Sequence) [reference compound] | about 31% |  |  |  |  | IC50(HDMX)/IC50(HDM2) (HDMX): 5.5
